Converted amounts (≈) assume the structure as drawn. Blank lines part the entries; values can stand above or below the compound they belong to.
Columns and labels:
Assay in all cases: ≥ marks a high value that may be exact or a test limit, other limits are often not marked, values filed in µg/mL are converted to µM
[1] = tested on: Escherichia coli NEB5alpha
[2] = tested on: Bacillus subtilis ATCC 6051
[3] = tested on: Pseudomonas aeruginosa ATCC 27853
Escherichia coli K-12 = tested on: Escherichia coli K-12
[4] = tested on: Staphylococcus aureus ATCC 33591
[5] = tested on: Escherichia coli ATCC 25922
[6] = tested on: Enterococcus faecium ATCC 700221
[7] = tested on: Staphylococcus aureus ATCC 6538
[8] = tested on: Staphylococcus aureus ATCC 43300
[9] = tested on: Escherichia coli ATCC 8739
[10] = tested on: Candida albicans ATCC 90028
[11] = tested on: Bacillus subtilis KCTC 3068
[12] = tested on: Escherichia coli KCTC 1682
[13] = tested on: Pseudomonas aeruginosa KCTC 1637
[14] = tested on: Salmonella typhimurium KCTC 1926
[15] = tested on: Staphylococcus epidermidis KCTC 1917
[16] = tested on: Staphylococcus aureus KCTC 1621

SMILES: CC[C@H](C)[C@H](NC(=O)[C@H](CCCCN)NC(=O)[C@H](CCCCN)NC(=O)[C@H](CC(C)C)NC(=O)[C@H](CC(C)C)NC(=O)[C@H](CCCCN)NC(=O)[C@H](CCCCN)NC(=O)[C@@H](NC(=O)[C@H](CCCN=C(N)N)NC(=O)[C@H](CCCCN)NC(=O)[C@H](CC(C)C)NC(=O)[C@H](CC(C)C)NC(=O)CN)[C@@H](C)CC)C(=O)N[C@@H](CCCCN)C(=O)N[C@@H](CCCCN)C(=O)N[C@@H](CC(C)C)C(=O)N[C@@H](CC(C)C)C(N)=O [GLLKRIKKLLKKIKKLL]
MIC [3]: 12.5 µM (≈ 25.4 µg/mL)
MIC [4]: 12.5 µM (≈ 25.4 µg/mL)
MIC [5]: 12.5 µM (≈ 25.4 µg/mL)
MIC [6]: 6.3 µM (≈ 12.8 µg/mL)

SMILES: CC[C@H](C)[C@H](NC(=O)[C@H](CCCCN)NC(=O)[C@@H](NC(=O)[C@H](CO)NC(=O)[C@H](CC(N)=O)NC(=O)[C@H](Cc1c[nH]c2ccccc12)NC(=O)[C@H](CC(C)C)NC(=O)CN)[C@@H](C)CC)C(=O)N[C@@H](C)C(=O)NCC(=O)N[C@@H](CCCCN)C(=O)N[C@@H](CCCCN)C(=O)N[C@@H](CC(C)C)C(=O)N[C@@H](Cc1ccccc1)C(=O)N[C@H](C(=O)N[C@@H](CC(N)=O)C(=O)N[C@H](C(=O)N[C@@H](CC(C)C)C(=O)N[C@@H](CC(=O)O)C(=O)N[C@@H](CCCCN)C(=O)N[C@H](C(=O)N[C@@H](CCCN=C(N)N)C(=O)N[C@H]1CSSC[C@@H](C(=O)N[C@@H](CCCCN)C(=O)N[C@H](C(=O)N[C@@H](CO)C(=O)N2CCC[C@H]2C(=O)N[C@@H](CC(=O)O)C(=O)N[C@H](C(=O)N[C@@H](CCC(=O)O)C(=O)N[C@@H](Cc2ccc(O)cc2)C(=O)N[C@@H](Cc2cnc[nH]2)C(=O)N[C@@H](CCCCN)C(=O)O)C(C)C)[C@@H](C)O)NC(=O)CNC(=O)CNC(=O)[C@H](C)NC(=O)[C@H](C(C)C)NC(=O)[C@H](CCCCN)NC1=O)[C@@H](C)CC)C(C)C)C(C)C [GLWNSIKIAGKKLFVNVLDKIRCKVAGGCKTSPDVEYHK]
MIC [7]: 6.3 µM (≈ 27.2 µg/mL)
MIC [8]: 100 µM (≈ 432 µg/mL)
MIC [9]: 6.3 µM (≈ 27.2 µg/mL)

SMILES: CC[C@H](C)[C@H](NC(=O)[C@H](CCCCN)NC(=O)[C@@H](NC(=O)[C@H](CO)NC(=O)[C@H](CC(N)=O)NC(=O)[C@H](Cc1c[nH]c2ccccc12)NC(=O)[C@H](CC(C)C)NC(=O)CN)[C@@H](C)CC)C(=O)N[C@@H](C)C(=O)NCC(=O)N[C@@H](CCCCN)C(=O)N[C@@H](CCCCN)C(=O)N[C@@H](CC(C)C)C(=O)N[C@@H](Cc1ccccc1)C(=O)N[C@H](C(=O)N[C@@H](CC(N)=O)C(=O)N[C@H](C(=O)N[C@@H](CC(C)C)C(=O)N[C@@H](CC(=O)O)C(=O)N[C@@H](CCCCN)C(=O)N[C@H](C(=O)N[C@@H](CCCN=C(N)N)C(=O)N[C@@H](CO)C(=O)N[C@@H](CCCCN)C(=O)N[C@H](C(=O)N[C@@H](C)C(=O)NCC(=O)NCC(=O)N[C@@H](CO)C(=O)O)C(C)C)[C@@H](C)CC)C(C)C)C(C)C [GLWNSIKIAGKKLFVNVLDKIRSKVAGGS]
MIC [7]: 6.3 µM (≈ 19.5 µg/mL)
MIC [10]: ≥ 100 µM
MIC [8]: 25 µM (≈ 77.5 µg/mL)
MIC [9]: 3.1 µM (≈ 9.61 µg/mL)

SMILES: CC[C@H](C)[C@H](NC(=O)[C@H](CCCN=C(N)N)NC(=O)[C@H](CCCCN)NC(=O)[C@H](CCCN=C(N)N)NC(=O)[C@@H](NC(=O)[C@H](CCCN=C(N)N)NC(=O)[C@@H](N)CCCCN)[C@@H](C)CC)C(=O)N[C@@H](CCCCN)C(=O)N[C@@H](CCCCN)C(=O)N[C@@H](Cc1c[nH]c2ccccc12)C(=O)N[C@@H](CC(C)C)C(=O)N[C@@H](CCCN=C(N)N)C(N)=O [KRIRKRIKKWLR]
MIC [11]: 2 µM (≈ 3.36 µg/mL)
MIC [12]: 2 µM (≈ 3.36 µg/mL)
MIC [13]: 4 µM (≈ 6.72 µg/mL)
MIC [14]: 2 µM (≈ 3.36 µg/mL)
MIC [15]: 1 µM (≈ 1.68 µg/mL)
MIC [16]: 4 µM (≈ 6.72 µg/mL)

SMILES: CC[C@H](C)[C@H](NC(=O)[C@H](Cc1c[nH]c2ccccc12)NC(=O)[C@@H]1CCCN1C(=O)[C@H](CCCCN)NC(=O)[C@H](CCSC)NC(=O)[C@H](C)NC(=O)[C@H](CCCCN)NC(=O)[C@H](CCC(N)=O)NC(=O)[C@H](Cc1cnc[nH]1)NC(=O)[C@H](CCC(N)=O)NC(=O)[C@H](Cc1ccc(O)cc1)NC(=O)[C@@H](NC(=O)[C@@H](N)[C@@H](C)O)C(C)C)C(=O)N[C@@H](CCC(N)=O)C(=O)N1CCC[C@H]1C(=O)N[C@@H](CCCCN)C(=O)N[C@H](C(=O)N[C@@H](CCCCN)C(=O)N[C@H](C(=O)N[C@H](C(=O)N1CCC[C@H]1C(=O)N[C@@H](Cc1ccc(O)cc1)C(=O)N[C@H](C(=O)N[C@@H](CCCN=C(N)N)C(=O)N[C@@H](Cc1ccc(O)cc1)C(=O)N[C@@H](CC(C)C)C(=O)O)C(C)C)[C@@H](C)CC)C(C)C)[C@@H](C)O [TVYQHQKAMKPWIQPKTKVIPYVRYL]
MIC [5]: 171 µM (≈ 550 µg/mL)
MIC [1]: 21.4 µM (≈ 68.8 µg/mL)
MIC [2]: 2.67 µM (≈ 8.6 µg/mL)

SMILES: CC(C)C[C@H](NC(=O)[C@H](CC(C)C)NC(=O)[C@H](CCC(N)=O)NC(=O)[C@H](CCC(=O)O)NC(=O)[C@H](CC(C)C)NC(=O)[C@@H](N)Cc1ccc(O)cc1)C(=O)N[C@@H](CCCN=C(N)N)C(=O)O [YLEQLLR]
MIC [5]: 40.1 µM (≈ 37.5 µg/mL)
MIC [1]: ≥ 241 µM
MIC [2]: ≥ 53.5 µM

Second part, the compound after the results:

MIC [1]: ≥ 1000 µM
MIC [2]: ≥ 500 µM
SMILES: NCCCC[C@H](NC(=O)[C@H](CCC(=O)O)NC(=O)[C@H](CC(=O)O)NC(=O)[C@H](CCC(=O)O)NC(=O)[C@H](CC(=O)O)NC(=O)[C@H](CCC(=O)O)NC(=O)[C@@H](N)CC(=O)O)C(=O)N[C@@H](CCCN=C(N)N)C(=O)N[C@@H](CCC(N)=O)C(=O)N1CCC[C@H]1C(=O)N[C@@H](Cc1cnc[nH]1)C(=O)O [DEDEDEKRQPH]

MIC [3]: 64 µM (≈ 117 µg/mL)
MIC (Escherichia coli K-12): ≥ 128 µM
SMILES: CC[C@H](C)[C@H](NC(=O)[C@H](CCCCN)NC(=O)[C@H](CCCCN)NC(=O)[C@H](CC(C)C)NC(=O)[C@H](C)NC(=O)CNC(=O)[C@@H](NC(=O)[C@H](C)NC(=O)[C@H](CCCCN)NC(=O)[C@@H]1CCCN1C(=O)[C@H](CC(C)C)NC(=O)[C@H](CC(C)C)NC(=O)[C@H](CCCCN)NC(=O)[C@H](Cc1ccccc1)NC(=O)[C@H](Cc1ccccc1)NC(=O)[C@@H](N)Cc1ccccc1)[C@@H](C)CC)C(=O)O [FFFKLLPKAIGALKKI]

MIC [5]: 583 µM (≈ 1650 µg/mL)
MIC [1]: ≥ 292 µM
MIC [2]: ≥ 292 µM
SMILES: CC[C@H](C)[C@H](NC(=O)[C@@H](N)Cc1cnc[nH]1)C(=O)N[C@@H](CCC(N)=O)C(=O)N[C@@H](CCCCN)C(=O)N[C@@H](CCC(=O)O)C(=O)N[C@@H](CC(=O)O)C(=O)N[C@H](C(=O)N1CCC[C@H]1C(=O)N[C@@H](CO)C(=O)N[C@@H](CCC(=O)O)C(=O)N[C@@H](CCCN=C(N)N)C(=O)N[C@@H](Cc1ccc(O)cc1)C(=O)N[C@@H](CC(C)C)C(=O)NCC(=O)N[C@@H](Cc1ccc(O)cc1)C(=O)N[C@@H](CC(C)C)C(=O)N[C@@H](CCC(=O)O)C(=O)N[C@@H](CCC(N)=O)C(=O)N[C@@H](CC(C)C)C(=O)N[C@@H](CC(C)C)C(=O)N[C@@H](CCCN=C(N)N)C(=O)N[C@@H](CC(C)C)C(=O)N[C@@H](CCCCN)C(=O)O)C(C)C [HIQKEDVPSERYLGYLEQLLRLK]

MIC [1]: ≥ 493 µM
SMILES: CC[C@H](C)[C@H](NC(=O)[C@@H]1CCCN1C(=O)[C@H](CCSC)NC(=O)[C@H](CC(=O)O)NC(=O)[C@H](CCCN=C(N)N)NC(=O)[C@H](CCC(N)=O)NC(=O)[C@@H]1CCCN1C(=O)[C@H](Cc1ccc(O)cc1)NC(=O)[C@@H]1CCCN1C(=O)[C@@H](N)C(C)C)C(=O)N[C@@H](CCC(N)=O)C(=O)N[C@@H](C)C(=O)N[C@@H](Cc1ccccc1)C(=O)N[C@@H](CC(C)C)C(=O)O [VPYPQRDMPIQAFL]
